Measured values reported in patent US20130012466A1 (priority 2006, published 2013).
Read-outs that look alike come from different tables or passages of the source.

Tests used:
[1] = test system: mouse mammary normal epithelial control cell line; assay: Cytotoxicity assay, normal control cell line
A549 = assay: Cytotoxicity assay (cell titer-glo and calcein AM), A549; conditions: A549, % error in parentheses
Du145 = assay: Cytotoxicity assay (cell titer-glo and calcein AM), Du145; conditions: Du145, % error in parentheses
Hep3B = assay: Cytotoxicity assay (cell titer-glo and calcein AM), Hep3B; conditions: Hep 3B, % error in parentheses
SF-268 = assay: Cytotoxicity assay (cell titer-glo and calcein AM), SF-268; conditions: SF-268, % error in parentheses
SK-OV-3 = assay: Cytotoxicity assay (cell titer-glo and calcein AM), SK-OV-3; conditions: SK-OV-3, % error in parentheses
ADR-RES = assay: Cytotoxicity assay (cell titer-glo and calcein AM), ADR-RES; conditions: NCI/ADR RES, % error in parentheses
NCI-H460 = assay: Cytotoxicity assay (cell titer-glo and calcein AM), NCI-H460; conditions: NCI-H460, % error in parentheses
MCF7 = assay: Cytotoxicity assay (cell titer-glo and calcein AM), MCF7
[2] = read-out: Cytotoxicity IC50, NmuMG, CTG, CTG (cell titer-glo) readout, % error in parentheses
[3] = read-out: Cytotoxicity IC50, NmuMG, calcein, calcein AM readout, % error in parentheses
[4] = read-out: Cytotoxicity IC50, A549, CTG, CTG (cell titer-glo) readout
[5] = read-out: Cytotoxicity IC50, A549, calcein, calcein AM readout
[6] = read-out: Cytotoxicity IC50, Du145, CTG, CTG (cell titer-glo) readout
[7] = read-out: Cytotoxicity IC50, Du145, calcein, calcein AM readout
[8] = read-out: Cytotoxicity IC50, Hep 3B, CTG, CTG (cell titer-glo) readout
[9] = read-out: Cytotoxicity IC50, Hep 3B, calcein, calcein AM readout
[10] = read-out: Cytotoxicity IC50, SF-268, CTG, CTG (cell titer-glo) readout
[11] = read-out: Cytotoxicity IC50, SF-268, calcein, calcein AM readout
[12] = read-out: Cytotoxicity IC50, SK-OV-3, CTG, CTG (cell titer-glo) readout
[13] = read-out: Cytotoxicity IC50, SK-OV-3, calcein, calcein AM readout
[14] = read-out: Cytotoxicity IC50, NCI/ADR RES, CTG, CTG (cell titer-glo) readout
[15] = read-out: Cytotoxicity IC50, NCI/ADR RES, calcein, calcein AM readout
[16] = read-out: Cytotoxicity IC50, NCI-H460, CTG, CTG (cell titer-glo) readout
[17] = read-out: Cytotoxicity IC50, NCI-H460, calcein, calcein AM readout
[18] = read-out: Cytotoxicity IC50, MCF7, CTG, CTG (cell titer-glo) readout, % error in parentheses
[19] = read-out: Cytotoxicity IC50, MCF7, calcein, calcein AM readout, % error in parentheses

| Molecule | IC50 [1, 2] [µM] | IC50 [1, 3] [µM] | IC50 (A549; [4]) [µM] | IC50 (A549; [5]) [µM] | IC50 (Du145; [6]) [µM] | IC50 (Du145; [7]) [µM] | IC50 (Hep3B; [8]) [µM] | IC50 (Hep3B; [9]) [µM] | IC50 (SF-268; [10]) [µM] | IC50 (SF-268; [11]) [µM] | IC50 (SK-OV-3; [12]) [µM] | IC50 (SK-OV-3; [13]) [µM] | IC50 (ADR-RES; [14]) [µM] | IC50 (ADR-RES; [15]) [µM] | IC50 (NCI-H460; [16]) [µM] | IC50 (NCI-H460; [17]) [µM] | IC50 (MCF7; [18]) [µM] | IC50 (MCF7; [19]) [µM] |
| --- | --- | --- | --- | --- | --- | --- | --- | --- | --- | --- | --- | --- | --- | --- | --- | --- | --- | --- |
| COc1cc2c(c(OC)c1OC)-c1ccc(OC)c(=O)cc1[C@@H](NC(=O)CN(OC)[C@@H]1O[C@H](CBr)[C@H](O)[C@H](O)[C@H]1O)CC2 [Col42, 6-deoxy-6-bromo-D-galactoside] | 2.83 | 2.92 | 3.94 | 2.64 | 4.47 | 4.26 | > 10 | > 10 | 6.37 | 3.31 | 8.36 | > 10 | 2.49 | 2.23 | 4.4 | > 10 | 4.9 | 3.69 |
| COc1cc2c(c(OC)c1OC)-c1ccc(OC)c(=O)cc1C(NC(=O)CN(OC)C1OCC(O)C(O)C1O)CC2 [Col25, L-arabinoside] | 5.7 | > 10 | 5.02 | 5.26 | 7.4 | > 10 | > 10 | > 10 | 6.8 | 4.46 | 8.51 | 2.51 | 5.14 | 5.53 | 4.41 | 5.78 | 3.02 | 3.43 |
| COc1cc2c(c(OC)c1OC)-c1ccc(OC)c(=O)cc1[C@@H](NC(C)=O)CC2 [Col] | – | – | – | – | > 10 | 4.67 | > 10 | 9.38 | > 10 | > 10 | > 10 | – | > 10 | 6.32 | – | – | – | – |
| CCCCCCCCCC(=O)NC[C@H]1O[C@@H](N(CC(=O)N[C@H]2CCc3cc(OC)c(OC)c(OC)c3-c3ccc(OC)c(=O)cc32)OC)[C@H](O)[C@@H](O)[C@@H]1O [Col59, 6-deoxy-6-N-decanoyl-D-glucosaminoside] | > 10 | 8.43 | 8.14 | > 10 | 5.28 | 7.09 | 5.7 | 7.36 | 5.53 | 9.44 | 5.08 | 7.11 | 5.16 | 7.97 | 4.95 | 5.21 | 5.51 | 6.19 |
| COc1cc2c(c(OC)c1OC)-c1ccc(OC)c(=O)cc1[C@@H](NC(=O)CN(OC)[C@@H]1O[C@H](CO)[C@H](O)[C@H](O)[C@H]1NC(C)=O)CC2 [Col28, N-acetyl-D-galactosaminoside] | > 10 | 9.57 | > 10 | > 10 | > 10 | > 10 | – | > 10 | 5.7 | 3.56 | 5.18 | 7.32 | 9.95 | > 10 | 9.76 | > 10 | 4.87 | 6.67 |
| COc1cccc2c1C(=O)c1c(O)c3c(c(O)c1C2=O)C[C@@](O)(C(=O)CO)C[C@@H]3O[C@H]1C[C@H](N)[C@H](O)[C@H](C)O1 [doxorubi] | – | – | – | – | 0.842 | 0.339 | 0.519 | 0.268 | 0.249 | 0.385 | 0.394 | 0.621 | 0.57 | – | – | – | – | – |
| COc1cc2c(c(OC)c1OC)-c1ccc(OC)c(=O)cc1C(NC(=O)CN(OC)C1OCC(O)C(O)C1O)CC2 [Col17, L-xyloside] | > 10 | > 10 | 9.4 | > 10 | 8.48 | > 10 | > 10 | > 10 | 5.93 | 9.72 | > 10 | > 10 | > 10 | > 10 | 5.17 | 5.61 | 6.22 | 5.09 |
| COc1cc2c(c(OC)c1OC)-c1ccc(OC)c(=O)cc1C(NC(=O)CN(OC)C1OCC(O)C(O)C1O)CC2 [Col20, D-arabinoside] | > 10 | > 10 | 9.07 | > 10 | 2.41 | 3.74 | > 10 | > 10 | 2.54 | 3.95 | > 10 | > 10 | 7.85 | 7.74 | 5.21 | 3.71 | 4.44 | 2.35 |
| mycaroside [Col49] | > 10 | 8.84 | > 10 | > 10 | 5.2 | 8.56 | 9.76 | > 10 | 9.94 | 7.86 | > 10 | > 10 | 5.38 | > 10 | ≥ 10 | 9.31 | 4.38 | 5.21 |
| novioside [Col29] | > 5 | > 5 | 1.86 | 2.18 | 1.24 | 0.55 | 2.47 | 2.94 | 1.12 | 1.28 | 1.03 | 4.35 | 1.56 | 1.18 | 0.98 | 3.37 | 0.61 | 0.3 |
| COc1cc2c(c(OC)c1OC)-c1ccc(OC)c(=O)cc1[C@@H](NC(=O)CN(OC)[C@@H]1O[C@H](CSC(C)=O)[C@H](O)[C@H](O)[C@H]1O)CC2 [Col68, 6-deoxy-6-thio-acyl-D-galactoside] | 9.83 | 9.44 | 4.77 | 7.67 | 4.19 | 1.73 | 5.22 | 7.92 | 3.85 | 3.27 | 4.5 | 2.43 | 4.88 | 2.04 | 4.41 | 3.12 | 2.42 | 2.54 |
| COc1cc2c(c(OC)c1OC)-c1ccc(OC)c(=O)cc1[C@@H](NC(=O)CN(OC)[C@@H]1OC[C@@H](O)[C@@H](O)[C@H]1O)CC2 [Col5, D-riboside] | > 10 | > 10 | > 10 | > 10 | > 10 | 6.78 | 9.86 | 6.52 | 5.01 | 4.59 | > 10 | > 10 | 4.84 | 5.06 | 5.06 | 5.76 | 2.84 | 2.88 |
| COc1cc2c(c(OC)c1OC)-c1ccc(OC)c(=O)cc1[C@@H](NC(=O)CN(OC)[C@@H]1O[C@H](CO)[C@@H](O)[C@H](F)[C@H]1O)CC2 [Col33, 3-fluoro-3-deoxy-D-glucoside] | 5.93 | > 10 | 2.02 | 1.87 | 9.6 | 5.44 | 2.67 | 1.99 | 0.86 | 2.33 | 1.25 | 1.89 | > 10 | > 10 | 4.39 | > 10 | 6.64 | 6.13 |
